# System: recurrent glioblastoma
# Experiment: Treatment of a patient with recurrent glioblastoma with temozolomide plus PTK787
# Format: in vivo, human
# Details: one patient with histologically confirmed recurrent glioblastoma; temozolomide 50 mg/m^2 daily for 5 consecutive days every 28 days in addition to continuous daily dose of 1000 mg PTK787; observed during the third cycle
# Method: Suitable clinical studies are, for example, randomized, double-blind, placebo-controlled, parallel studies in patients with recurrent glioblastoma, but also dose escalation studies. […] Tumor assessment in the form of dynamic contrast-enhanced MRI is also a suitable approach to determine the effect of the COMBINATION OF THE INVENTION. In a suitable study design, patients are receiving, for example, temozolomide in a dosage of 50 to 250 mg/m^2 daily, for example, 200 mg/m^2 daily, for 5 consecutive days every 28 days or placebo in addition to a continuous daily dose of 500 to 2000 mg of a compound of formula I, e.g., 500, 1000, 1500 or 2000 mg of PTK787 or placebo.
smiles,measurement,value
Clc1ccc(Nc2nnc(Cc3ccncc3)c3ccccc23)cc1 [PTK787],disease status observed under treatment,stable disease

# — US7754716B2, “Combination comprising a vasculostatic compound and an alkylating agent for the treatment of a tumor” (Novartis AG, priority 2002, dated 2010)
